The numbers were not newly measured in patent US10021900B2, “Carbohydrate composition and food and beverage producing gradual rise in blood glucose levels” (MATSUTANI CHEMICAL INDUSTRY CO., LTD., priority 2011, dated 2018), which cites them from elsewhere.

SMILES strings stand for the structures.

For the data set the following is noted: 10% by mass aqueous solution.

Turning to `OC[C@H]1O[C@H](OC[C@H]2OC(O)(CO)[C@@H](O)[C@@H]2O)[C@H](O)[C@@H](O)[C@@H]1O` (stereo partly shown) [isomaltulose], the osmotic pressure entry is on record as “about 340 mOSMOL/kg”.
